Results on 7 molecules are retold here after publication PMC10314922, “Fluorescence lifetime FRET assay for live-cell high-throughput screening of the cardiac SERCA pump yields multiple classes of small-molecule allosteric modulators” (Scientific Reports, 2023).

The target in test [1] is T1, SERCA2a (Sus scrofa, UniProt P11607).
T1 construct: Cardiac SR vesicles were isolated from fresh porcine left ventricular tissue using differential centrifugation; from tissue; host or cells: porcine left ventricular tissue (cardiac SR vesicles)
T1 sequence (P11607 1-997 isoform P11607-2): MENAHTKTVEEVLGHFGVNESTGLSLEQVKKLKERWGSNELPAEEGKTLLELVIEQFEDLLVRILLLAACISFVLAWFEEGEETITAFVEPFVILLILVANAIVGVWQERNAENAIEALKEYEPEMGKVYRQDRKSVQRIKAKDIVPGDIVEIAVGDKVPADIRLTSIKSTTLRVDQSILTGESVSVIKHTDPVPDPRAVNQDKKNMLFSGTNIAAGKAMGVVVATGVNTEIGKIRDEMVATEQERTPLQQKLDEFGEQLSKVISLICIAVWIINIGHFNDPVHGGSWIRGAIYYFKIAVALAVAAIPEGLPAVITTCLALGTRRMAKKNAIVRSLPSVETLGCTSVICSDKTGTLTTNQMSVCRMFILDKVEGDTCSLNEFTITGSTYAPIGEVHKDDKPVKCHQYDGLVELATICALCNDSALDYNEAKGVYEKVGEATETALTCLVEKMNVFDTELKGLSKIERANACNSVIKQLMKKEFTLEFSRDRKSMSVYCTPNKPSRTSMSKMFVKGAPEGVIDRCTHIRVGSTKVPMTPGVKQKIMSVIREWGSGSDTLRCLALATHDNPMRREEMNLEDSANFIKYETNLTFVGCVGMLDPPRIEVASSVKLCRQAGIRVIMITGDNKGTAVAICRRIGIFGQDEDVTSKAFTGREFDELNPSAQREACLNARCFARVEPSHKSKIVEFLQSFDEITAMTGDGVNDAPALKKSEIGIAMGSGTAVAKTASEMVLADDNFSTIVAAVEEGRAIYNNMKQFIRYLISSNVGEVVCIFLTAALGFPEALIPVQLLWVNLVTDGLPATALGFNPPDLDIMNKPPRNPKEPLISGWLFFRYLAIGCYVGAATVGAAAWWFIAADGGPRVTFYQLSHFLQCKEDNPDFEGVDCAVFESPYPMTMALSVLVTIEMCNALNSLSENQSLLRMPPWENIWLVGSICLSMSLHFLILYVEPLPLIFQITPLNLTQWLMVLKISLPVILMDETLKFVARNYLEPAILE
The test can be described thus: Oxalate-supported Fluo-4 Ca2+-uptake (Ca2+-transport) assay in pig cardiac SR (pCSR) vesicles. Format: biochemical. The conditions noted are these: for Ca2+-Uptake C10: concentration yielding 10% effect; for CR (coupling ratio) VU/VA: maximum Ca2+-uptake rate / Ca2+-ATPase rate at [Ca2+]MAX, DMSO control = 0.66; for Inhibition of Ca2+-uptake (class): strong / moderate / mild; for Decrease of ΔFMAX and ΔFMID for Ca2+-uptake: both [Ca2+], stated as size of decrease. How it is done:
(§1) Cardiac SR vesicles were isolated from fresh porcine left ventricular tissue using differential centrifugation of the homogenized tissue as previously described. The SR vesicles were flash-frozen and stored at − 80 °C until needed. The SERCA concentration in the ER preparations purified from HEK cell homogenate is at least 10 times less than in purified porcine cardiac SR[20], but there was sufficient expression of the fluorescent SERCA2a biosensor in HEK cells to detect FRET with high precision by FLT[22],[23],[26].
Ca^2+-transport assays were performed with similar porcine SR samples as in the Ca^2+-ATPase assays described above. The compound effect on the Ca^2+-transport activity of SERCA2a was determined using an oxalate-supported assay in which the change in fluorescence in a Ca^2+-sensitive dye, Fluor-4, was determined as previously described. A buffered solution containing 50 mM MOPS (pH 7.0), 100 mM KCl, 30 mg/mL sucrose, 1 mM EGTA, 10 mM potassium oxalate, 2 µM Fluo-4, 30 µg/mL porcine cardiac SR vesicles, CaCl2 calculated to reach the free [Ca^2+] (pCa 8.0, 6.2, and 5.4), and compound (0.048 to 50 μM) was dispensed into 384-well black walled, transparent bottomed plates (Greiner Bio-One) containing the tested small molecule and incubated at 22℃ for 20 min while covered and protected from light. To start the reaction, MgATP was added to a final concentration of 5 mM, and the decrease in 485-nm excited fluorescence of Fluo-4 was monitored at 520 nm for 15 min using a FLIPR Tetra (Molecular Devices, San Jose, CA).
(§2) SERCA2a activity, F (rate of ATP hydrolysis or Ca^2+ uptake), was measured at varying pCa and varying compound concentration. F measured at [Ca^2+]MAX (saturating, pCa 5.4) or [Ca^2+]MID (subsaturating, midpoint, pCa 6.2) was corrected by subtracting the basal rate at pCa 8.0) and the % effect due to compound was reported. Concentration response curves (CRC) were fitted using the Hill function to determine VMAX (the activity at saturating [compound]), and EC50, the compound concentration at 50% effect.

The target of test [2] is T2, human two-color SERCA2a (2CS) biosensor (Homo sapiens, UniProt P16615, INS508[…]).
T2 construct: expressed in transfected cells
T2 sequence (P16615 other isoform, or with tags, fused parts or gaps with the stated changes): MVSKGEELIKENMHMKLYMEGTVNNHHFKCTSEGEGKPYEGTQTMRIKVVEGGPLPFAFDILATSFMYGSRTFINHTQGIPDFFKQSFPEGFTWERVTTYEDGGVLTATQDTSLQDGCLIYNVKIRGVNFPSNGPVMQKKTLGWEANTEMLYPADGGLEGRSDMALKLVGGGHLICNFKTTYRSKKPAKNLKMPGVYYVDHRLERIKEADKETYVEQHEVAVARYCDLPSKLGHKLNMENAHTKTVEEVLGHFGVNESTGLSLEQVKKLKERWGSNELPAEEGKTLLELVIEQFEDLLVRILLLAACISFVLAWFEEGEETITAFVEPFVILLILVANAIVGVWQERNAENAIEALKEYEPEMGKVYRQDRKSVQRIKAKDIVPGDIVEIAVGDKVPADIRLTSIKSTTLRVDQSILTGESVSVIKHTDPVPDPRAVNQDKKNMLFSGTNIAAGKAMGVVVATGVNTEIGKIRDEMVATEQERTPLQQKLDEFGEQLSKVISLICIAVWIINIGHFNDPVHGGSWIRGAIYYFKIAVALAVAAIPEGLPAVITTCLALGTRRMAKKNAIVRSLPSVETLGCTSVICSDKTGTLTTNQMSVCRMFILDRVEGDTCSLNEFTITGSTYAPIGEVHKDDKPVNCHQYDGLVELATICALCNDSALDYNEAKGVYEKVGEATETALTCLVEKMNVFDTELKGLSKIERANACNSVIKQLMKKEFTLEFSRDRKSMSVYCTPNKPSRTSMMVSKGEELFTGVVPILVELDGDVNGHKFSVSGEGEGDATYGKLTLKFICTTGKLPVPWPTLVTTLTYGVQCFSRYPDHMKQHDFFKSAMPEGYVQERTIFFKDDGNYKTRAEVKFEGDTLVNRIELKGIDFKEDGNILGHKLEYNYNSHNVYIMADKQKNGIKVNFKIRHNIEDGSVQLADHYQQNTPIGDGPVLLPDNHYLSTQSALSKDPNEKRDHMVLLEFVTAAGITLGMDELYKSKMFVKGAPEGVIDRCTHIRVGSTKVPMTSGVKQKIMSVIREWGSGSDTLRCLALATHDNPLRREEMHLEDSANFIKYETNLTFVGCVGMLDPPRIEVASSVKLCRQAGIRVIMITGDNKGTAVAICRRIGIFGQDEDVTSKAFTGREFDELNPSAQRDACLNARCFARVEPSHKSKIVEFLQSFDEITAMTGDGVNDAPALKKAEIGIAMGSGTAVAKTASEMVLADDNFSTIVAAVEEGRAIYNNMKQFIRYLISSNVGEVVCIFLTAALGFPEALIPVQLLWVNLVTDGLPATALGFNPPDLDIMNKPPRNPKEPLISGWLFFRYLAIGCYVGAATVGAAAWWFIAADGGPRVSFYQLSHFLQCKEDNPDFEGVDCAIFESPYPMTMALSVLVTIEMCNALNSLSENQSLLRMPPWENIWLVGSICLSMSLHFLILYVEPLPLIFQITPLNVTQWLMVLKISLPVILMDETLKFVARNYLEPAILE
Put plainly: FRET concentration response curves (FLT-FRET) with the 2CS biosensor in live HEK cells. Format: cell-based. From the text: A two-color intramolecular human SERCA2a (2CS) biosensor, based on human cardiac SERCA2a fused to green fluorescent protein (eGFP) and red fluorescent protein (tagRFP) was developed to detect structural changes that are related to the functional changes of SERCA[20],[22],[25]. Briefly, tagRFP was genetically fused to the N-terminus of SERCA (A-domain) and eGFP was inserted as an intrasequence tag before residue 509 in the nucleotide-binding domain (N-domain)[60],[61]. Donor-only and acceptor-only (1CS) biosensors were created in a similar manner as the 2CS biosensor but with the construct containing either only eGFP or only tag-RFP, respectively. […] A null-biosensor construct consisting of eGFP and tagRFP connected by a 32-residue unstructured flexible linker peptide (G32R) was created as described previously[23],[25]. All constructs were cloned into expression vectors containing the genes for antibiotic resistance to G418, puromycin, or blasticidin.
Stable cell lines were generated using either human embryonic kidney (HEK) HEK293 (ATCC, Manassas, VA) or HEK293-6E (National Research Council, Canada) cells. Briefly, cells were transiently transfected with 2CS, 1CS, or G32R null-biosensor plasmids using Lipofecatime 3000 or 293fectin (Thermo Fisher Scientific). Flow cytometry was used to select and enrich for the population of cells expressing respective biosensors. Stable HEK293 cell lines were maintained in phenol red-free DMEM media (Gibco, Waltham, MA) supplemented with 2 mM GlutaMAX (Gibco, Waltham, MA), 10% fetal bovine serum (FBS) (Atlanta Biologicals, Lawrenceville, GA), 1 IU/mL penicillin/streptomycin (Gibco, Waltham, MA), and 250 μg/mL G418 (Fisher Scientific). Stable HEK293-6E cell lines were maintained in F17 media (Sigma Aldrich) supplemented with Kolliphor p188 (Sigma Aldrich, St. Louis, MO), […] GlutaMAX, and either 1 μg/mL puromycin (Invitrogen, Carlsbad, CA) or 2 μg/mL blasticidin (Goldbio) as a selection antibiotic. All cell lines were grown at 37 °C with 5% CO2.
FRET CRC assay plates (0.78–100 μM compound range) with at least ten different compound concentrations were made by adding the appropriate volume of compound or DMSO into black 384 well plates (Greiner Bio-One) using a Mosquito HV (SPTLabTech, United Kingdom). Subsequent Ca^2+-ATPase activity and Ca^2+-transport CRC assay plates (0–50 μM compound range) with repurchased compounds were made in a similar manner using with the Echo 550 (Beckman Coulter) using either 384 well transparent plates (Greiner Bio-One) or black-walled plates with transparent bottoms (Greiner Bio-One), respectively.
On each day of screening, cells were harvested, washed three times with PBS, and centrifuged at 300 g for 5 min. Cells were filtered using a 70 µm cell strainer and diluted to 1–2 × 10^6 cells/mL. Cell concentration and viability were assessed using the Cell countess (Invitrogen) and trypan blue assay. During assays, cells were constantly and gently stirred using a magnetic stir bar at room temperature, keeping the cells in suspension and evenly distributed to avoid clumping. HEK 293-cells expressing 2CS were dispensed at 5 μL or […] per well into assay plates (dispensed into 40 assay plates, each containing 1536 wells) pre-plated with compounds (from a DIVERset 50,000 compound library) using a Multdrop Combi liquid dispenser (Thermo Fisher Scientific, Pittsburg, PA) and sealed until needed. Because the kinetics of membrane permeability, diffusion, and/or binding of the compound to live cells may be compound-dependent, we tested two incubation times, 20 min and 120 min, for the FRET CRC. […] Plates containing eight-point concentration curves of three tool compounds (known SERCA effectors thapsigargin, BHQ, and CPA)[22] were used as positive controls for biosensor function and performance prior to running the full-scale FRET-HTS assay. […]

The target of test [3] is T1, SERCA2a. The test can be described thus: NADH-linked Ca2+-ATPase activity assay in pig cardiac SR (pCSR) vesicles. The conditions noted are these: for Ca2+-ATPase C10: concentration yielding 10% effect; for Decrease of ΔFMAX and ΔFMID for Ca2+-ATPase activity: both [Ca2+], stated as size of decrease. Format: biochemical. The method, then:
as §1
Functional assays were performed using porcine cardiac SR (pCSR) vesicles. An enzyme-coupled, NADH-linked ATPase assay was used to measure SERCA ATPase activity in 384-well microplates. Each well contained 50 mM MOPS (pH 7.0), 100 mM KCl, 1 mM EGTA, 0.2 mM NADH, 1 mM phosphoenol pyruvate, 10 IU/mL of pyruvate kinase, 10 IU/mL of lactate dehydrogenase, 7 µM of the calcium ionophore A23187 (Sigma), and CaCl2 was added to set free [Ca^2+] to three different concentrations. Ca^2+-ATPase activity was measured at three [Ca^2+]: [Ca^2+]MAX (saturating, pCa 5.4), [Ca^2+]MID (subsaturating, midpoint, pCa 6.2), and [Ca^2+]BAS (basal non-activating, pCa 8.0). 10 μg/mL of SR vesicle, calcium, compound (0.048 to 50 μM), and assay mix were incubated for 20 min at room temperature before measurement of functional assays with each of the 18 hit compounds, because a shorter incubation time than the FRET live-cell assays achieved optimal responses. The assay was started upon the addition of MgATP, at a final concentration of 5 mM (total volume to 80 μL), and absorbance was read at 340 nm in a SpectraMax Plus^384 microplate spectrophotometer (Molecular Devices, Sunnyvale, CA).
as §2

For test [4], the target named is T1, SERCA2a. Set-up: method as in PMID 32397211. The note with it: read-out: EC50 of SERCA inhibition; cited from earlier work.

Entries after “also recorded” stand apart in the source; their conditions may differ. Read-outs that look alike come from different tables or passages of the source.

As to `COC(=O)CSc1ncc(-c2ccc(F)cc2)c(C2CCCN(C(=O)c3cccc(F)c3)C2)n1` (centres unmarked) [Compound 11, methyl {[4-[1-(3-fluorobenzoyl)-3-piperidinyl]-5-(4-fluorophenyl)-2-pyrimidinyl]thio}acetate], the EC50 in test [1] ([Ca2+]MAX (pCa5.4)) stood at 1.8 ± 0.04 µM; in test [1] ([Ca2+]MID (pCa6.2)), 2.8 ± 0.1 µM; in test [2], 14 ± 6.4 µM; in test [3] ([Ca2+]MAX (pCa5.4)), 3.2 ± 0.4 µM; in test [3] ([Ca2+]MID (pCa6.2)), 3.6 ± 0.5 µM. The “Ca2+-Uptake C10” value in test [1] ([Ca2+]MAX (pCa5.4)) is reported as 0.2 µM; in test [1] ([Ca2+]MID (pCa6.2)), 0.5 µM. Also, the “CR (coupling ratio) VU/VA” value in test [1] amounted to 0.13. Moreover, the “Ca2+-ATPase C10” value came to 0.8 µM in test [3] ([Ca2+]MAX (pCa5.4)) and 1.2 µM in test [3] ([Ca2+]MID (pCa6.2)).
Take `OCC1(CCOc2ccccc2)CCCN(Cc2cc3c(cc2Cl)OCO3)C1` (centres unmarked) [Compound 13, [1-[(6-chloro-1,3-benzodioxol-5-yl)methyl]-3-(2-phenoxyethyl)-3-piperidinyl]methanol]: the EC50 was 3.6 ± 0.1 µM in test [1] ([Ca2+]MAX (pCa5.4)), 6.4 ± 0.2 µM in test [1] ([Ca2+]MID (pCa6.2)) and 9.9 ± 2.1 µM in test [2]. In addition, the results for the “Ca2+-Uptake C10” value in test [1] ([Ca2+]MAX (pCa5.4)) and in test [1] ([Ca2+]MID (pCa6.2)) were 0.5 µM and 1.0 µM, respectively. The figures for the “Ca2+-ATPase C10” value in test [3] ([Ca2+]MAX (pCa5.4)) and in test [3] ([Ca2+]MID (pCa6.2)) were 1 µM and 1.6 µM, respectively.
As to `CCc1ccc(S(=O)(=O)N2CCCC(C(=O)c3sccc3C)C2)cc1` (centres unmarked) [Compound 14, {1-[(4-ethylphenyl)sulfonyl]-3-piperidinyl}(3-methyl-2-thienyl)methanone], the EC50 in test [1] ([Ca2+]MAX (pCa5.4)) turned out to be 3.4 ± 0.2 µM; in test [1] ([Ca2+]MID (pCa6.2)) it was 3.9 ± 0.2 µM; in test [2], 9.2 ± 1.1 µM; in test [3] ([Ca2+]MAX (pCa5.4)), 13 ± 11 µM; in test [3] ([Ca2+]MID (pCa6.2)), 8.9 ± 2.2 µM. Also, the “Ca2+-Uptake C10” value in test [1] ([Ca2+]MAX (pCa5.4)) came to 1.3 µM; in test [1] ([Ca2+]MID (pCa6.2)), 1.7 µM. The “CR (coupling ratio) VU/VA” value in test [1] was determined as 0.16. For the same molecule, in test [1], the “Inhibition of Ca2+-uptake (class)” value was “M → S; also recorded: moderate-to-strong”. Also, the figures for the “Ca2+-ATPase C10” value in test [3] ([Ca2+]MAX (pCa5.4)) and in test [3] ([Ca2+]MID (pCa6.2)) were 6.3 µM and 3.2 µM, respectively.
`CCC(C)(C)c1nnc(NC(=O)NCc2ccc(F)cc2F)s1` [Compound 15, N-(2,4-difluorobenzyl)-N'-[5-(1,1-dimethylpropyl)-1,3,4-thiadiazol-2-yl]urea]: the “Ca2+-Uptake C10” value came out at 0.9 µM in test [1] ([Ca2+]MAX (pCa5.4)) and 1.7 µM in test [1] ([Ca2+]MID (pCa6.2)). The “Decrease of ΔFMAX and ΔFMID for Ca2+-uptake” value in test [1] was 70–95%. In test [1], the “CR (coupling ratio) VU/VA” value is on record as 0.19. For the same molecule, in test [2], the EC50 is 16 ± 4.7 µM. The “Ca2+-ATPase C10” value in test [3] ([Ca2+]MAX (pCa5.4)) was determined as 0.7 µM; in test [3] ([Ca2+]MID (pCa6.2)), 0.4 µM. For the same molecule, in test [3], the “Decrease of ΔFMAX and ΔFMID for Ca2+-ATPase activity” value is on record as ~ 50%.
`O=S(=O)(NCc1ccccc1)N1CCc2ccc(C(F)(F)F)cc2C1` [Compound 17, N-benzyl-7-(trifluoromethyl)-3,4-dihydroisoquinoline-2(1H)-sulfonamide]: the “Ca2+-Uptake C10” value in test [1] ([Ca2+]MAX (pCa5.4)) amounted to 1 µM; in test [1] ([Ca2+]MID (pCa6.2)), 2.2 µM. The “Decrease of ΔFMAX and ΔFMID for Ca2+-uptake” value in test [1] was 70–95%. In addition, the “CR (coupling ratio) VU/VA” value in test [1] was determined as 0.09. In test [2], this molecule had an EC50 of 32 ± 5.3 µM. In addition, the results for the “Ca2+-ATPase C10” value in test [3] ([Ca2+]MAX (pCa5.4)) and in test [3] ([Ca2+]MID (pCa6.2)) were 6.2 µM and 5 µM, respectively. In test [3], the “Decrease of ΔFMAX and ΔFMID for Ca2+-ATPase activity” value was ~ 50%.
Consider `Cc1nc(N2CCCCCCC2)ncc1C(C)NC(=O)c1ccnn1C` (centres unmarked) [Compound 18, N-{1-[2-(1-azocanyl)-4-methyl-5-pyrimidinyl]ethyl}-1-methyl-1H-pyrazole-5-carboxamide], for which the entries for the “Ca2+-Uptake C10” value in test [1] ([Ca2+]MAX (pCa5.4)) and in test [1] ([Ca2+]MID (pCa6.2)) were 8.6 µM and 22.7 µM, respectively. The “CR (coupling ratio) VU/VA” value in test [1] was found to be 0.49. Also, in test [1], the “Inhibition of Ca2+-uptake (class)” value is recorded as “Mild → M; also recorded: mild-to-moderate”. Also, the EC50 in test [2] was 3 ± 0.3 µM; in test [3] ([Ca2+]MID (pCa6.2)), 0.18 ± 0.2 µM. Also, the results for the “Ca2+-ATPase C10” value in test [3] ([Ca2+]MAX (pCa5.4)) and in test [3] ([Ca2+]MID (pCa6.2)) were 2.2 µM and 1 µM, respectively.
For `C/C=C(/C)C(=O)O[C@H]1C(C)=C2[C@H]([C@@H]1OC(=O)CCCCCCC)[C@@](C)(OC(C)=O)C[C@H](OC(=O)CCC)[C@@]1(O)[C@H]2OC(=O)[C@@]1(C)O` [Tg, thapsigargin], the EC50 in test [4] is ~0.0075 µM.
